Article PMC7441537 (Journal of medicinal chemistry, 2019)
Marks after values point to notes of the source that are not given here.

How the values were obtained:
WT HIV-1 (NL4-3) = experiment: Anti-HIV-1 activity against wild-type NL4-3 in TZM-bl cell lines
in vitro = conditions: human
WT HIV-1 (IIIB) = conditions: MT-4 cells
[1] = test system: NNRTI-resistant strain K103N+Y181C (RES056); conditions: MT-4 cells

Structure (SMILES)	SI (CC50/EC50) NL4-3 (WT HIV-1 (NL4-3))	CC50 (in vitro) [nM]	SI IIIB (CC50/EC50) (WT HIV-1 (IIIB))	SI RES056 (CC50/EC50) [1]
Cc1cc(C#N)cc(C)c1Oc1nc(NC2CCCN(Cc3ccc(S(N)(=O)=O)cc3)CC2)nc2ccsc12 (stereo not drawn) [8a1, 4-((4-((4-(4-Cyano-2,6-dimethylphenoxy)thieno[3,2-d]-pyrimidin-2-yl)amino)azepan-1-yl)methyl)benzenesulfonamide]	>100	–	–	–
Cc1cc(C#N)cc(C)c1Oc1nc(NC2CCCN(Cc3ccc(C(N)=O)cc3)CC2)nc2ccsc12 (stereo not drawn) [8a2, 4-((4-((4-(4-Cyano-2,6-dimethylphenoxy)thieno[3,2-d]-pyrimidin-2-yl)amino)azepan-1-yl)methyl)benzamide]	X1^d	–	–	–
Cc1cc(C#N)cc(C)c1Oc1nc(NC2CC3CCC(C2)N3Cc2ccc(S(N)(=O)=O)cc2)nc2ccsc12 (stereo not drawn) [8b1, 4-((3-((4-(4-Cyano-2,6-dimethylphenoxy)thieno[3,2-d]-pyrimidin-2-yl)amino)-8-azabicyclo[3.2.1]octan-8-yl)methyl)benzenesulfonamide]	X1^d	–	–	–
Cc1cc(C#N)cc(C)c1Oc1nc(NC2CC3CCC(C2)N3Cc2ccc(C(N)=O)cc2)nc2ccsc12 (stereo not drawn) [8b2, 4-((3-((4-(4-Cyano-2,6-dimethylphenoxy)thieno[3,2-d]-pyrimidin-2-yl)amino)-8-azabicyclo[3.2.1]octan-8-yl)methyl)benzamide]	X1^d	–	–	–
Cc1cc(C#N)cc(C)c1Oc1nc(NC2CC3CCC(C2)N3Cc2cccc(C(N)=O)c2)nc2ccsc12 (stereo not drawn) [8b3, 3-((3-((4-(4-Cyano-2,6-dimethylphenoxy)thieno[3,2-d]-pyrimidin-2-yl)amino)-8-azabicyclo[3.2.1]octan-8-yl)methyl)benzamide]	X1^d	–	–	–
Cc1cc(C#N)cc(C)c1Oc1nc(NC2CC3CCC(C2)N3Cc2ccc(S(C)(=O)=O)cc2)nc2ccsc12 (stereo not drawn) [8b4, 3,5-Dimethyl-4-((2-((8-(4-(methylsulfonyl)benzyl)-8-azabicyclo[3.2.1]octan-3-yl)amino)thieno[3,2-d]pyrimidin-4-yl)oxy)benzonitrile]	X1^d	–	–	–
Cc1cc(C#N)cc(C)c1Oc1nc(NC2CC3CCC(C2)N3Cc2ccncc2)nc2ccsc12 (stereo not drawn) [8b5, 3,5-Dimethyl-4-((2-((8-(pyridin-4-ylmethyl)-8-azabicyclo-[3.2.1]octan-3-yl)amino)thieno[3,2-d]pyrimidin-4-yl)oxy)benzonitrile]	X1^d	–	–	–
Cc1cc(C#N)cc(C)c1Oc1nc(N[C@@H]2CCN(Cc3ccc(C(N)=O)cc3)C2)nc2ccsc12 [8c2, (R)-4-((3-((4-(4-Cyano-2,6-dimethylphenoxy)thieno[3,2-d]-pyrimidin-2-yl)amino)pyrrolidin-1-yl)methyl)benzamide]	–	> 250	–	–
Cc1cc(C#N)cc(C)c1Oc1nc(N[C@H]2CCN(Cc3cccc(C(N)=O)c3)C2)nc2ccsc12 [8d3, (S)-3-((3-((4-(4-Cyano-2,6-dimethylphenoxy)thieno[3,2-d]-pyrimidin-2-yl)amino)pyrrolidin-1-yl)methyl)benzamide]	X1^d	–	–	–
Cc1cc(C#N)cc(C)c1Oc1nc(NC2CCN(Cc3ccncc3)CC2)nc2c1SCC2 [13a4, 3,5-Dimethyl-4-((2-((1-(pyridin-4-ylmethyl)piperidin-4-yl)amino)-6,7-dihydrothieno[3,2-d]pyrimidin-4-yl)oxy)benzonitrile]	–	–	≥40104	≥2305
Cc1cc(C#N)cc(C)c1Oc1nc(NC2CCN(Cc3cccc(C(N)=O)c3)CC2)nc2c1SCC2 [13a6, 3-((4-((4-(4-Cyano-2,6-dimethylphenoxy)-6,7-dihydrothieno[3,2-d]pyrimidin-2-yl)amino)piperidin-1-yl)methyl)benzamide]	–	–	≥8048	≥355
Cc1cc(C#N)cc(C)c1Oc1nc(NC2CCN(Cc3ccc(N)cc3)CC2)nc2c1CSC2 [13b4, 4-((2-((1-(4-Aminobenzyl)piperidin-4-yl)amino)-5,7-dihydrothieno[3,4-d]pyrimidin-4-yl)oxy)-3,5-dimethylbenzonitrile]	–	–	>30377	>364
Cc1cc(C#N)cc(C)c1Oc1nc(NC2CCN(Cc3ccc(NS(C)(=O)=O)cc3)CC2)nc2c1CSC2 [13b5, N-(4-((4-((4-(4-Cyano-2,6-dimethylphenoxy)-5,7-dihydrothieno[3,4-d]pyrimidin-2-yl)amino)piperidin-1-yl)methyl)phenyl)methanesulfonamide]	–	–	>19670	>42
Cc1cc(C#N)cc(C)c1Oc1nc(NC2CCN(Cc3ccc([N+](=O)[O-])cc3)CC2)nc2c1COC2 [13c5, 3,5-Dimethyl-4-((2-((1-(4-nitrobenzyl)piperidin-4-yl)amino)-5,7-dihydrofuro[3,4-d]pyrimidin-4-yl)oxy)benzonitrile]	–	–	≥1497	≥22
Cc1cc(C#N)cc(C)c1Oc1nc(NC2CCN(Cc3ccc(C(N)=O)cc3)CC2)nc2c1CCC2 [13d2, 4-((4-((4-(4-Cyano-2,6-dimethylphenoxy)-6,7-dihydro-5H-cyclopenta[d]pyrimidin-2-yl)amino)piperidin-1-yl)methyl)benzamide]	–	–	>40984	>1448
Cc1cc(C#N)cc(C)c1Oc1nc(NC2CCN(Cc3ccncc3)CC2)nc2c1CCC2 [13d4, 3,5-Dimethyl-4-((2-((1-(pyridin-4-ylmethyl)piperidin-4-yl)amino)-6,7-dihydro-5H-cyclopenta[d]pyrimidin-4-yl)oxy)benzonitrile]	–	–	>147059	>5020
Cc1cc(C#N)cc(C)c1Oc1nc(NC2CCN(Cc3ccc(S(N)(=O)=O)cc3)CC2)nc2c1CCCC2 [13e1, 4-((4-((4-(4-Cyano-2,6-dimethylphenoxy)-5,6,7,8-tetrahydroquinazolin-2-yl)amino)piperidin-1-yl)methyl)benzenesulfonamide]	–	–	>37879	>342
Cc1cc(C#N)cc(C)c1Oc1nc(NC2CCN(Cc3ccc(C(N)=O)cc3)CC2)nc2c1CCCC2 [13e2, 4-((4-((4-(4-Cyano-2,6-dimethylphenoxy)-5,6,7,8-tetrahydroquinazolin-2-yl)amino)piperidin-1-yl)methyl)benzamide]	–	–	>38709	>799
Cc1cc(C#N)cc(C)c1Oc1nc(NC2CCN(Cc3ccc(S(C)(=O)=O)cc3)CC2)nc2c1CCCC2 [13e3, 3,5-Dimethyl-4-((2-((1-(4-(methylsulfonyl)benzyl)piperidin-4-yl)amino)-5,6,7,8-tetrahydroquinazolin-4-yl)oxy)benzonitrile]	–	–	>33333	>4032
Cc1cc(C#N)cc(C)c1Oc1nc(NC2CCN(Cc3ccc(C(N)=O)cc3)CC2)nc2c1SCCC2 [13f2, 4-((4-((4-(4-Cyano-2,6-dimethylphenoxy)-7,8-dihydro-6H-thiopyrano[3,2-d]pyrimidin-2-yl)amino)piperidin-1-yl)methyl)benzamide]	–	–	>14767	>476
Cc1cc(C#N)cc(C)c1Oc1nc(NC2CCN(Cc3ccc(S(C)(=O)=O)cc3)CC2)nc2c1SCCC2 [13f3, 3,5-Dimethyl-4-((2-((1-(4-(methylsulfonyl)benzyl)piperidin-4-yl)amino)-7,8-dihydro-6H-thiopyrano[3,2-d]pyrimidin-4-yl)oxy)benzonitrile]	–	–	≥872	≥34.6
